From a melting point compilation (Tetko et al.; mined from patent text by program, amines drawn as free bases though some values may be those of a salt)

First: COC(=O)NCCOC(=O)COc1cc(Oc2ccc(C(F)(F)F)cc2Cl)ccc1[N+](=O)[O-]
Second: O=[N+]([O-])c1ccc(NS(=O)(=O)c2cccc(C(F)(F)F)c2)c(Cl)c1
The melting point of the first is lower: 105 to 108 °C for the first, 126 to 127 °C for the second.

First: CCCCNc1nc(C)cc(Cl)n1
Second: CCOCc1nc2c(N)nc3cc(Cl)ccc3c2n1CC(C)(C)O
The melting point of the first is lower: 35 to 36 °C for the first, 238 to 240 °C for the second.

Compared with `C[C@@H](n1ccn(-c2ccc(O)cc2)c1=O)[C@](O)(Cn1cncn1)c1ccc(F)cc1F`, `CC(C(=O)O)c1ccc(-n2cccn2)cc1` (stereo not drawn) is higher in melting point: 93 to 103 °C for the first, 137 to 138 °C for the second.

First: CNC(=O)c1ccccc1Nc1nc(Nc2ccc3c(c2)N(C)C(=O)CCC3)ncc1Cl
Second: COc1cccc(OC)c1C(=O)Nc1cccc2c1CCN(C)C2
The melting point of the first is higher: 292 to 294 °C for the first, 191 to 192 °C for the second.

First: O=C(O)CCCCCCCCCCCNC(=O)CCCCCCCCC/C=C/c1ccccc1
Second: CCCCCCCCCCCCCCOc1ccc(C(=O)Cl)cc1Cl
The melting point of the first is higher: 119 to 121 °C for the first, 90 °C for the second.

First: CN(Cc1cc2c(=O)c(C(=O)NCc3ccc(Cl)cc3)cn(C)c2o1)CC(O)c1ccc(-c2ccccc2)o1 (stereo not drawn)
Second: CN(Cc1ccc2c(Br)c(OCc3nnn[nH]3)ccc2c1)C(=O)c1cn(Cc2ccccc2)c2ccccc12
The melting point of the first is lower: 115 to 119 °C for the first, 197 to 198 °C for the second.

First: CCCCC(=O)NC(=O)C(c1ccccc1)c1ccccc1
Second: CCCOCCNC(=O)C(c1ccccc1)c1ccccc1
The melting point of the first is higher: 83 °C for the first, 77.8 to 78.9 °C for the second.

Compared with `O=C1c2ccccc2C(=O)N1CCCOc1cccc2[nH]c3ccccc3c12`, `O=C1Nc2ccccc2N(C(=O)CN2C(=O)c3ccccc3C2=O)C2CCCC12` (stereo not drawn) is higher in melting point: 171 to 172 °C for the first, 207 to 208 °C for the second.

First: CCOCN1C(C)=C(C(=O)O)C(c2cccc([N+](=O)[O-])c2)C(C(=O)OC)=C1C (single isomer, unassigned; (-))
Second: COC(=O)C1=C(C)Nc2ccccc2NC1c1cccc([N+](=O)[O-])c1 (stereo not drawn)
The melting point of the first is higher: 134 to 135 °C for the first, 124 to 126 °C for the second.

First: Cc1cc(CSc2cccc(OCc3cccc4ccccc34)c2)oc(=O)c1
Second: CC(=O)OCc1ccc(-c2[nH]c(-c3cccc4ccccc34)nc2C(=O)Nc2nccs2)cc1
The melting point of the first is lower: 139 °C for the first, 197 to 199 °C for the second.

First: COCCOc1cc2ncnc(NC3=CC(=O)C(Oc4ccccc4)=CC3=O)c2cc1OC
Second: COC(=O)c1cc(OCCCCCCOc2ccc(-c3ccccc3)cc2)ccc1O
The melting point of the first is higher: 177 to 180 °C for the first, 91 to 92 °C for the second.

First: OC12N=C(CSCc3ccccc3)SC1Cc1cc(Cl)ccc12 (stereo not drawn)
Second: COc1ccc(CCc2cc3c(s2)NC(=S)CN=C3c2ccccc2Cl)cc1
The melting point of the first is lower: 102 to 104 °C for the first, 185 to 186 °C for the second.

First: CCCc1c(OCc2ccc(C(=O)OC)cc2)ccc(C(C)=O)c1O
Second: COc1ccc2c(C(=O)CC(C)=O)c(OC)ccc2c1
The melting point of the first is higher: 99.5 to 100 °C for the first, 88 °C for the second.

First: CCCCCCOC1CC(C)(C)N(c2nc(Cl)nc(Cl)n2)C(C)(C)C1
Second: CCc1c(C(=O)N2CCN(CCCCc3c[nH]c4ccc(F)cc34)CC2)nc(-c2ccccc2Cl)n1-c1ccc(Cl)cc1
The melting point of the first is lower: 49 to 51 °C for the first, 91 to 92 °C for the second.

Compared with `Fc1ccc2[nH]c3c(c2c1)CN(CCc1ccccn1)CC3`, `Oc1ccc(Cn2ccnc2)c2cccnc12` is lower in melting point: 199 to 201 °C for the first, 182 °C for the second.

First: CC(=O)c1cc2cccc(OC3SCC(O)C(O)C3O)c2o1 (stereo not drawn)
Second: O=[N+]([O-])c1ccccc1OC1SCC(O)C(O)C1O (stereo not drawn)
The melting point of the first is lower: 116 to 120 °C for the first, 137 to 140 °C for the second.

First: O=C(O)c1ccccc1C=Cc1ccccc1
Second: CCCNC(=O)CSc1nc(-c2ccccc2)c(-c2ccccc2)[nH]1
The melting point of the first is lower: 158 to 159 °C for the first, 183 to 185 °C for the second.

Compared with `CC(C)Cn1c(=O)n(C)c(=O)c2c(SCCCO)c(C(=O)c3cccnc3)sc21`, `CCC(CC)c1nn(-c2ccc(C(F)(F)F)cn2)cc1CCCOc1c(F)cccc1CC(=O)O` is lower in melting point: 152 to 155 °C for the first, 102 to 103 °C for the second.

Compared with `COc1cc2c(cc1O)C(OC)CN(Cc1ccccc1OC)C2` (stereo not drawn), `CCOC(=NC(=O)c1cc(Cl)nc(Cl)c1)N1Cc2ccccc2-c2ccccc2C1` is higher in melting point: 45 to 47 °C for the first, 151 to 152 °C for the second.

First: COC(=O)CCCCC(NC(=O)c1ccccc1)C(C)=O (stereo not drawn)
Second: NC(=NC(=O)c1nc(Cl)c(N)nc1N)NCCCCc1ccc(OCC(=O)Nc2ccccc2)cc1
The melting point of the first is lower: 59 to 60 °C for the first, 168 to 170 °C for the second.

First: NC(=O)c1sc2c(Cl)cccc2c1Cl
Second: COC(=O)C1=C(C)NC(C)=C(C(=O)OCCN)C1c1cccc(Cl)c1Cl (stereo not drawn)
The melting point of the first is higher: 225 to 229 °C for the first, 166 to 167 °C for the second.

First: CC(=O)Nc1cccc2c1SCC=C2
Second: COc1ncccc1NC(=O)[C@H]1[C@H](c2ccccc2)C1(C)C (relative stereo)
The melting point of the first is lower: 98 to 100 °C for the first, 152 to 154 °C for the second.

First: CC(C)(C)c1nnc2ccc(OCCCN3CCC(OC(c4ccccc4)c4ccccc4)CC3)nn12
Second: CC(C)(C)c1ccc(C(=O)CCCN2CCC(C(=O)c3nc4ccccc4n3Cc3ccc(F)cc3)CC2)cc1
The melting point of the first is higher: 125 to 127 °C for the first, 105 to 106 °C for the second.

First: CC1CCC2(C)C(CCC3C4CCC(=O)C4(C)CCC32)C1 (stereo not drawn)
Second: CC1(C)Oc2cc(C(=O)O)sc2[C@@H](N2CCCCC2=O)[C@@H]1O (relative stereo)
The melting point of the first is lower: 107 to 108 °C for the first, 268 to 270 °C for the second.

Compared with `CCOC(=O)c1ccc(SC)cn1`, `CCOC(=O)c1ccc2nc[nH]c2c1` is higher in melting point: 44 to 46 °C for the first, 93 to 94 °C for the second.

Compared with `CC(CN(O)C(N)=O)OCc1cc2ccccc2s1` (stereo not drawn), `CCc1cc2c(s1)-n1nc(C(=O)O)nc1CN=C2c1ccccc1Cl` is higher in melting point: 132 to 133 °C for the first, 134 to 136 °C for the second.

First: COc1ccc(C)cc1NC(=O)Nc1ccc(N2CCN(C(=O)Oc3ccc(CCO)cc3Cl)CC2)cc1
Second: Cc1ccc(C=CC(=O)N[C@@H](Cc2ccc(OCCc3nc(-c4ccccc4)oc3C)c(Br)c2)C(=O)O)cc1
The melting point of the first is lower: 189 to 190 °C for the first, 243 to 245 °C for the second.

First: COc1ccc(Cc2nc(N3CCOCC3)c3c(C)c(C#N)sc3n2)cc1OC
Second: COc1ccc(S(=O)(=O)Nc2c(C#N)cc(C)cc2C(=O)O)cc1
The melting point of the first is lower: 67 to 70 °C for the first, 162 °C for the second.

First: CS(=O)(=O)C(=C1CN(C(c2ccccc2)c2ccccc2)C1)c1cc(Cl)cc(Cl)c1
Second: CS(=O)(=O)Nc1cc(NC(=N)c2ccccc2)cc(NC(=O)/C=C/c2ccccc2C(F)(F)F)c1
The melting point of the first is higher: 204 °C for the first, 150 to 155 °C for the second.

First: CSc1ccc2[nH]c(=O)oc(=O)c2c1
Second: O=c1[nH]c(Cl)nc2ccccc12
The melting point of the first is lower: 216 to 218 °C for the first, 251 to 252 °C for the second.

First: C=C(C)Cc1c(O)c(C)c(C)c2c1CC(C)N2C=O (stereo not drawn)
Second: Cc1cn([C@H]2CC[C@H](CC(=O)O)C[C@@H]2NC(=O)OC(C)(C)C)c(=O)[nH]c1=O
The melting point of the first is lower: 133 to 135 °C for the first, 231 to 233 °C for the second.

First: CC(C)N(O)C(=O)Cc1ccc2c(c1)C(=O)c1ccccc1CO2
Second: CC(Cc1ccc(OCC(=O)O)cc1)NS(=O)(=O)c1ccc(Cl)cc1 (stereo not drawn)
The melting point of the first is higher: 144 to 145 °C for the first, 132 to 136 °C for the second.

Compared with `CCC(C)NC1=NS(=O)(=O)c2cc(C(=O)O)ccc2N1` (stereo not drawn), `[N-]=[N+]=NS(=O)(=O)c1cccc(C(=O)O)c1` is lower in melting point: over 310 °C for the first, 122 to 127 °C for the second.

First: Oc1ccc([C@@H]2C[C@H]2c2ccc(O)cc2)cc1 (relative stereo)
Second: Cc1nc(-c2ccc(O)cc2)[nH]c1Cl
The melting point of the first is lower: 190 to 191 °C for the first, 226 to 228 °C for the second.

First: OCc1cc2cc(-c3ccc4ccc(Cl)cc4n3)ccc2o1
Second: COc1ccc(CCCN2C=CC=C3C2=Nc2ccc(Cl)cc2S(=O)(=O)N3C)cc1
The melting point of the first is higher: 206 to 207 °C for the first, 62 to 65 °C for the second.

Compared with `CNS(=O)(=O)c1ccc(-c2cccc(-c3nc(C(C)C)[nH]c3-c3cccc(C)n3)c2)cc1`, `Cc1ccc(-c2c(CN3C(=O)c4ccccc4C3=O)n(CC(C)C)c(=O)c3ccc(OCc4ccccc4)cc23)cc1` is higher in melting point: 96 to 100 °C for the first, 158 to 159 °C for the second.

Compared with `CCON=C(CC)C1=C(O)CC(c2ccc(Oc3ccc(S(C)(=O)=O)cc3)cc2)CC1=O` (stereo not drawn), `CCCCOCCOc1ccc(-c2ccc3c(c2)C=C(C(=O)O)CCN3CC2CCCCC2)cc1` is lower in melting point: 155 to 157 °C for the first, 124 to 125 °C for the second.

First: CN(C)c1ccc(C=CC(C=C(c2ccc(N(C)C)cc2)c2ccc(N(C)C)cc2)C=C(c2ccc(N(C)C)cc2)c2ccc(N(C)C)cc2)cc1
Second: c1ccc(-c2ccccc2OCCCCOc2ccccc2-c2ccccc2)cc1
The melting point of the first is higher: 78 to 82 °C for the first, 62 to 67 °C for the second.

First: C[C@H](NC(=O)c1c[nH]c2ncc(-c3cn(-c4cc(C(F)(F)F)ccc4F)cn3)nc12)C(C)(C)C
Second: CC(C)(N)C(O)c1cc(C(F)(F)F)nc2c(C(F)(F)F)cccc12 (stereo not drawn)
The melting point of the first is higher: over 300 °C for the first, 175 to 176 °C for the second.

First: COC(=O)Nc1nc2ccc(S(=O)c3ccccc3)cn2c1Br (stereo not drawn)
Second: CC(C)(C)OC(=O)N1CC[C@@H](NC(=O)c2ccc(-n3cc4ccccc4n3)cc2)C1
The melting point of the first is lower: 150 to 152 °C for the first, 211 to 212 °C for the second.

Going from `CCOC(=O)c1cn(-c2ccc(F)cn2)c2nc(N3CC(C)NC(C)C3)c(F)cc2c1=O` (stereo not drawn) to `O=C1CCCC2=C1C(c1ccc(F)c(Cl)c1)C1=C(CCS1)N2` (stereo not drawn), the melting point rises from 165 °C to over 250 °C.

First: O=C1CCCCCCCCCCCCCCCCCCCCCCC1O (stereo not drawn)
Second: CCCc1cccc(C2CCCC2)c1
The melting point of the first is lower: 39 to 40 °C for the first, 90 °C for the second.

First: CS(=O)(=O)c1ccc(N2CCC3(CC2)OCCO3)cc1
Second: CCC(C)(O)C1(c2cccc(OC)c2)CCN(C)CC1 (stereo not drawn)
The melting point of the first is higher: 192 to 194 °C for the first, 134 to 135 °C for the second.

First: CC(=O)CCc1nc2ccc3c(c2o1)C(CCNC(C)=O)CC3 (stereo not drawn)
Second: CC(=O)NCC1CC1c1cccc2nnsc12 (stereo not drawn)
The melting point of the first is higher: 111 to 112 °C for the first, 81 to 82 °C for the second.

First: CC(C)(C)c1cc(Cc2c(S)ccc3ccccc23)cc(C(C)(C)C)c1O
Second: COc1ccc(C(C)(C)C)cc1C(=O)c1ccc([N+](=O)[O-])cc1Cl
The melting point of the first is lower: 30 °C for the first, 82.5 to 83.5 °C for the second.

Compared with `Cc1cc(C)c(C2C(=O)N(C)C3(CCN(N(C)C)CC3)C2=O)c(C)c1` (stereo not drawn), `CN1C(=O)N(c2nnc(C(C)(C)C)s2)C(=O)C1(C)OC(N)=O` (stereo not drawn) is lower in melting point: over 195 °C for the first, 165 °C for the second.

First: CC(C)(CO)CCCCCCC(O)CCCCCCC(C)(C)CO
Second: Cc1nc2c(s1)C(=O)N(C(C)(C)C)C2=O
The melting point of the first is lower: 75 to 77 °C for the first, 106 °C for the second.

First: N#Cc1cc(Sc2ccc(Cl)c(Cl)c2)ccc1N
Second: O=C(O)c1cccc(OCc2cc(Cl)cc(Cl)c2)c1OCc1cc(Cl)cc(Cl)c1
The melting point of the first is lower: 126 to 128 °C for the first, 150 to 151 °C for the second.

Compared with `Oc1c(Cc2c[nH]cn2)cccc1C1=NCCN1`, `O=C1Nc2ccccc2SC1CCCCl` (stereo not drawn) is lower in melting point: 261 °C for the first, 98 to 99 °C for the second.
